Measurements published in PubChem BioAssay AID2060336 (Molecular Pharmacology Branch, DTP, NCI, 2025).
Values joined by “and” are separate entries in the source; they are usually repeats but may differ in a detail not shown here. Equal entries are not always repeated. Blank lines part the entries; values can stand above or below the molecule they belong to.

Test system: 958767-090-R-J1-PDC spheroid growth
Assay: Anticancer human tumor 958767-090-R-J1-PDC patient-derived head and neck squamous carcinoma cell line growth inhibition [IpAb]
Conditions: spheroids with HUVEC and MSC; for viability, T/C: stronger effect = lower value
In short: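 Combinations with ipatasertib or abemaciclib were tested on tumour spheroids holding HUVEC (25%) and MSC (15%) alongside 60% malignant cells. Top concentration was at or near clinical Cmax (10 microM if undefined), descending in half-log steps.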

[1] = curve of first compound, second compound 0.01 µM
[2] = curve of first compound, second compound 0.0316 µM
[3] = curve of first compound, second compound 0.1 µM
[4] = curve of first compound, second compound 0.316 µM
[5] = curve of first compound, second compound 1 µM
[6] = second compound 0.01 µM, first compound 0.0316 µM
[7] = second compound 0.01 µM, first compound 0.1 µM
[8] = second compound 0.01 µM, first compound 0.316 µM
[9] = second compound 0.01 µM, first compound 1 µM
[10] = second compound 0.01 µM, first compound 3.16 µM
[11] = second compound 0.01 µM, first compound 10 µM
[12] = second compound 0.0316 µM, first compound 0.0316 µM
[13] = second compound 0.0316 µM, first compound 0.1 µM
[14] = second compound 0.0316 µM, first compound 0.316 µM
[15] = second compound 0.0316 µM, first compound 1 µM
[16] = second compound 0.0316 µM, first compound 3.16 µM
[17] = second compound 0.0316 µM, first compound 10 µM
[18] = second compound 0.1 µM, first compound 0.0316 µM
[19] = second compound 0.1 µM, first compound 0.1 µM
[20] = second compound 0.1 µM, first compound 0.316 µM
[21] = second compound 0.1 µM, first compound 1 µM
[22] = second compound 0.1 µM, first compound 3.16 µM
[23] = second compound 0.1 µM, first compound 10 µM
[24] = second compound 0.316 µM, first compound 0.0316 µM
[25] = second compound 0.316 µM, first compound 0.1 µM
[26] = second compound 0.316 µM, first compound 0.316 µM
[27] = second compound 0.316 µM, first compound 1 µM
[28] = second compound 0.316 µM, first compound 3.16 µM
[29] = second compound 0.316 µM, first compound 10 µM
[30] = second compound 1 µM, first compound 0.0316 µM
[31] = second compound 1 µM, first compound 0.1 µM
[32] = second compound 1 µM, first compound 0.316 µM
[33] = second compound 1 µM, first compound 1 µM
[34] = second compound 1 µM, first compound 3.16 µM
[35] = second compound 1 µM, first compound 10 µM
[36] = curve of first compound, second compound 3.16 µM
[37] = curve of first compound, second compound 10 µM
[38] = second compound 3.16 µM, first compound 0.0316 µM
[39] = second compound 3.16 µM, first compound 0.1 µM
[40] = second compound 3.16 µM, first compound 0.316 µM
[41] = second compound 3.16 µM, first compound 1 µM
[42] = second compound 3.16 µM, first compound 3.16 µM
[43] = second compound 3.16 µM, first compound 10 µM
[44] = second compound 10 µM, first compound 0.0316 µM
[45] = second compound 10 µM, first compound 0.1 µM
[46] = second compound 10 µM, first compound 0.316 µM
[47] = second compound 10 µM, first compound 1 µM
[48] = second compound 10 µM, first compound 3.16 µM
[49] = second compound 10 µM, first compound 10 µM
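Note: spheroids exposed to agents for 7 days.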
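Throughout, for viability, T/C: 100% = DMSO vehicle control wells.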

SMILES: CC1(C)CCC(CN2CCN(c3ccc(C(=O)NS(=O)(=O)c4ccc(NCC5CCOCC5)c([N+](=O)[O-])c4)c(Oc4cnc5[nH]ccc5c4)c3)CC2)=C(c2ccc(Cl)cc2)C1 + CCN1CCN(Cc2ccc(Nc3ncc(F)c(-c4cc(F)c5nc(C)n(C(C)C)c5c4)n3)nc2)CC1
- IC50 [1]: 5780 nM
- IC50 [2]: 4930 nM
- IC50 [3]: 4090 nM
- IC50 [4]: 3890 nM
- IC50 [5]: 4050 nM
- viability, T/C [6]: 88.7%
- viability, T/C [7]: 90.8%
- viability, T/C [8]: 71.5%
- viability, T/C [9]: 95.8%
- viability, T/C [10]: 121%
- viability, T/C [11]: 10.4%
- viability, T/C [12]: 75.5%
- viability, T/C [13]: 83.4%
- viability, T/C [14]: 59.4%
- viability, T/C [15]: 70.9%
- viability, T/C [16]: 102%
- viability, T/C [17]: 5.08%
- viability, T/C [18]: 63.5%
- viability, T/C [19]: 60.7%
- viability, T/C [20]: 66.6%
- viability, T/C [21]: 50.3%
- viability, T/C [22]: 70%
- viability, T/C [23]: 7.55%
- viability, T/C [24]: 57%
- viability, T/C [25]: 50.6%
- viability, T/C [26]: 57.2%
- viability, T/C [27]: 57.2%
- viability, T/C [28]: 79.2%
- viability, T/C [29]: 3.5%
- viability, T/C [30]: 61.2%
- viability, T/C [31]: 61.3%
- viability, T/C [32]: 59.8%
- viability, T/C [33]: 59.6%
- viability, T/C [34]: 70.9%
- viability, T/C [35]: 4.55%

- IC50 (curve of compound): 2000 nM and 2910 nM
SMILES: Cn1nccc1Nc1nccc(-c2ccn(C(CO)c3ccc(Cl)c(F)c3)c(=O)c2)n1 (stereo unspecified)
- viability, T/C (compound 0.0316 µM): 92.1% and 96.5%
- viability, T/C (compound 0.1 µM): 72.6% and 82.8%
- viability, T/C (compound 0.316 µM): 71.3% and 72.6%
- viability, T/C (compound 1 µM): 55.1% and 69.1%
- viability, T/C (compound 3.16 µM): 54.4% and 50%
- viability, T/C (compound 10 µM): 21.6% and 26.4%

SMILES: C=CCn1c(=O)c2cnc(Nc3ccc(N4CCN(C)CC4)cc3)nc2n1-c1cccc(C(C)(C)O)n1 + CC(C)NCC(C(=O)N1CCN(c2ncnc3c2C(C)CC3O)CC1)c1ccc(Cl)cc1
- IC50 [3]: 179 nM
- IC50 [4]: 85 nM
- IC50 [5]: 45.5 nM
- IC50 [36]: 45.9 nM
- IC50 [37]: < 31.6 nM
- viability, T/C [18]: 88.2%
- viability, T/C [19]: 65%
- viability, T/C [20]: 35%
- viability, T/C [21]: 25%
- viability, T/C [22]: 23.7%
- viability, T/C [23]: 19.6%
- viability, T/C [24]: 64.1%
- viability, T/C [25]: 47.7%
- viability, T/C [26]: 24.2%
- viability, T/C [27]: 17%
- viability, T/C [28]: 17.8%
- viability, T/C [29]: 15.2%
- viability, T/C [30]: 52.1%
- viability, T/C [31]: 45.4%
- viability, T/C [32]: 23.5%
- viability, T/C [33]: 15.6%
- viability, T/C [34]: 16.9%
- viability, T/C [35]: 13%
- viability, T/C [38]: 55%
- viability, T/C [39]: 39.6%
- viability, T/C [40]: 22.2%
- viability, T/C [41]: 16.2%
- viability, T/C [42]: 14.8%
- viability, T/C [43]: 11.9%
- viability, T/C [44]: 39.1%
- viability, T/C [45]: 32.4%
- viability, T/C [46]: 17.9%
- viability, T/C [47]: 13.9%
- viability, T/C [48]: 13.6%
- viability, T/C [49]: 7.78%

- IC50 (curve of compound): 7660 nM and 7220 nM
SMILES: C=CC(=O)N1CCN(c2nc(=O)n(-c3c(C)ccnc3C(C)C)c3nc(-c4c(O)cccc4F)c(F)cc23)C(C)C1 (stereo unspecified)
- viability, T/C (compound 0.0316 µM): 99.7% and 95%
- viability, T/C (compound 0.1 µM): 93.8% and 88.2%
- viability, T/C (compound 0.316 µM): 97.1% and 102%
- viability, T/C (compound 1 µM): 94.9% and 107%
- viability, T/C (compound 3.16 µM): 83.6% and 75.9%
- viability, T/C (compound 10 µM): 39.8%

- IC50 (curve of compound): 10.7 nM and 18.2 nM
SMILES: COc1c(OCCCN2CCOCC2)ccc2c3n(c(=NC(=O)c4cnc(N)nc4)nc12)CCN3
- viability, T/C (compound 0.00316 µM): 64.4% and 71.9%
- viability, T/C (compound 0.01 µM): 50% and 60.7%
- viability, T/C (compound 0.0316 µM): 34.6% and 39.4%
- viability, T/C (compound 0.1 µM): 15.9% and 25.2%
- viability, T/C (compound 0.316 µM): 8.95% and 9.82%
- viability, T/C (compound 1 µM): 4.88% and 4.05%

SMILES: Cc1nc(NC(=O)N2CCCC2C(N)=O)sc1-c1ccnc(C(C)(C)C(F)(F)F)c1 (stereo unspecified) + CCN1CCN(Cc2ccc(Nc3ncc(F)c(-c4cc(F)c5nc(C)n(C(C)C)c5c4)n3)nc2)CC1
- IC50 [1]: 171 nM
- IC50 [2]: 59 nM
- IC50 [3]: < 31.6 nM
- IC50 [4]: < 31.6 nM
- IC50 [5]: 141 nM
- viability, T/C [6]: 65.3%
- viability, T/C [7]: 56.4%
- viability, T/C [8]: 42.7%
- viability, T/C [9]: 31.7%
- viability, T/C [10]: 19.3%
- viability, T/C [11]: 11.2%
- viability, T/C [12]: 57.6%
- viability, T/C [13]: 40.5%
- viability, T/C [14]: 36.4%
- viability, T/C [15]: 27.2%
- viability, T/C [16]: 15.9%
- viability, T/C [17]: 9.45%
- viability, T/C [18]: 49.9%
- viability, T/C [19]: 43.3%
- viability, T/C [20]: 34.9%
- viability, T/C [21]: 24.9%
- viability, T/C [22]: 15.8%
- viability, T/C [23]: 9.36%
- viability, T/C [24]: 39.5%
- viability, T/C [25]: 39.3%
- viability, T/C [26]: 27.6%
- viability, T/C [27]: 20.7%
- viability, T/C [28]: 17.1%
- viability, T/C [29]: 10.8%
- viability, T/C [30]: 62.6%
- viability, T/C [31]: 56.2%
- viability, T/C [32]: 38.3%
- viability, T/C [33]: 31.5%
- viability, T/C [34]: 19.9%
- viability, T/C [35]: 13.2%

SMILES: C=CC(=O)N1CCN(c2nc(=O)n(-c3c(C)ccnc3C(C)C)c3nc(-c4c(O)cccc4F)c(F)cc23)C(C)C1 (stereo unspecified) + CC(C)NCC(C(=O)N1CCN(c2ncnc3c2C(C)CC3O)CC1)c1ccc(Cl)cc1
- IC50 [3]: 5020 nM
- IC50 [4]: 1870 nM
- IC50 [5]: 835 nM
- IC50 [36]: 1580 nM
- IC50 [37]: 1050 nM
- viability, T/C [18]: 82%
- viability, T/C [19]: 86.5%
- viability, T/C [20]: 84.4%
- viability, T/C [21]: 86.4%
- viability, T/C [22]: 59.9%
- viability, T/C [23]: 35.2%
- viability, T/C [24]: 78.5%
- viability, T/C [25]: 71.1%
- viability, T/C [26]: 72.3%
- viability, T/C [27]: 54.7%
- viability, T/C [28]: 44.8%
- viability, T/C [29]: 28.7%
- viability, T/C [30]: 72.8%
- viability, T/C [31]: 57.4%
- viability, T/C [32]: 63.3%
- viability, T/C [33]: 48.4%
- viability, T/C [34]: 34%
- viability, T/C [35]: 19.2%
- viability, T/C [38]: 63.9%
- viability, T/C [39]: 66.9%
- viability, T/C [40]: 53.8%
- viability, T/C [41]: 54.5%
- viability, T/C [42]: 44.9%
- viability, T/C [43]: 16%
- viability, T/C [44]: 56.2%
- viability, T/C [45]: 54.6%
- viability, T/C [46]: 64.9%
- viability, T/C [47]: 48.1%
- viability, T/C [48]: 29.6%
- viability, T/C [49]: 5.8%
